Test results: patent US10111874B2, “Combination therapies for treatment of cancer” (Araxes Pharma LLC, priority 2014, dated 2018)

Each compound was assayed against T1, KRAS G12C 1-169, his-tagged protein, GDP-loaded (Homo sapiens, UniProt P01116, G12C) (assay: Biochemical assay: covalent binding to KRAS G12C analyzed by mass spectrometry). Conditions: compounds 1-47, measured at 24 h.
T1 construct: KRAS G12C 1-169, his-tagged protein, GDP-loaded
Note: test concentration or dose not given here.

T1 sequence (P01116 1-169 isoform P01116-2 G12C): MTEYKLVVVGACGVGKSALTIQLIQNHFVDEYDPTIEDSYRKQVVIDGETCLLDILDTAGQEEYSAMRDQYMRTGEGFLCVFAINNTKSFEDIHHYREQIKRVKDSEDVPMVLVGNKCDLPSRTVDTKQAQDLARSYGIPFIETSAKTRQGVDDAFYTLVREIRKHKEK

Question: For `C=CC(=O)N1CCN(c2ncnc3cc(C4CC4)c(-c4ccc(C5CC5)cc4)cc23)CC1` [Compound I-41, 1-(4-(7-cyclopropyl-6-(4-cyclopropylphenyl)quinazolin-4-yl)piperazin-1-yl)prop-2-en-1-one], which Binding % is on record?
Answer: + (+indicates binding activity from 5% to 25%)

Same assay, conditions: compounds 48-246, measured at 2 h

Question: How did the Binding % turn out when `C=CC(=O)N1CCN(c2ncnc3cc(-c4ccccc4C(C)C)c(Cl)cc23)CC1` [Compound I-99, 1-(4-(6-chloro-7-(2-isopeopylphenyl)quinazolin-4-yl)piperazin-1-yl)prop-2-en-1-one] was run?
Answer: +++ (+++indicates binding activity greater than 50% and up to 75%)

Question: With `C=CC(=O)N1CCN(c2ncnc3cc(-c4ccc[nH]c4=O)c(Cl)cc23)CC1` [Compound I-170, 3-(4-(4-acryloylpiperazin-1-yl)-6-chloroquinazolin-7-yl)pyridin-2(1H)-one] as the compound, how does the Binding % read?
Answer: + (+indicates binding activity from 5% to 25%)

Question: For `C=CC(=O)N1CCN(c2ncnc3cc(-c4cc(C5CC5)ccc4F)c(Cl)cc23)CC1` [Compound I-147, 1-(4-(6-chloro-7-(5-cyclopropyl-2-fluorophenyl)quinazolin-4-yl)piperazin-1-yl)prop-2-en-1-one], which Binding % is on record?
Answer: ++ (++indicates binding activity greater than 25% and up to 50%)

Question: For `C=CC(=O)N1CCN(c2ncnc3cc(-c4nn(C)c5ccccc45)c(Cl)cc23)CC1` [Compound I-226, 1-(4-(6-chloro-7-(1-methyl-1H-indazol-3-yl)quinazolin-4-yl)piperazin-1-yl)prop-2-en-1-one], which Binding % is on record?
Answer: + (+indicates binding activity from 5% to 25%)

Question: How did the Binding % turn out when `C=CC(=O)N1CCN(c2ncnc3cc(-c4ccccc4O)c(Cl)cc23)CC1C` (centres unmarked) [Compound I-134, 1-(4-(6-chloro-7-(2-hydroxyphenyl)quinazolin-4-yl)-2-methylpiperazin-1-yl)prop-2-en-1-one] was run?
Answer: ++ (++indicates binding activity greater than 25% and up to 50%)

Question: For `C=CC(=O)N1CCN(c2ncnc3cc(-c4cc(O)ccc4Cl)c(C(F)(F)F)cc23)CC1` [Compound I-207, 1-(4-(7-(2-chloro-5-hydroxyphenyl)-6-(trifluoromethyl)quinazolin-4-yl)piperazin-1-yl)prop-2-en-1-one], which Binding % is on record?
Answer: ++++ (++++indicates binding activity greater than 75%)

Question: How did the Binding % turn out when `C=CC(=O)N1CCN(c2ncnc3c(Cl)c(-c4ccccc4F)c(Cl)cc23)CC1` [Compound I-210, 1-(4-(6,8-dichloro-7-(2-fluorophenyl)quinazolin-4-yl)piperazin-1-yl)prop-2-en-1-one] was run?
Answer: ++++ (++++indicates binding activity greater than 75%)

Question: With `C=CC(=O)N1CCN(c2ncnc3cc(Cl)c(-c4ccc(Cl)cc4)cc23)CC1CC(N)=O` (centres unmarked) [Compound I-69, 2-(1-acryloyl-4-(7-chloro-6-(4-chlorophenyl)quinazolin-4-yl)piperazin-2-yl)acetamide] as the compound, how does the Binding % read?
Answer: + (+indicates binding activity from 5% to 25%)

Question: `C=CC(=O)N1CCN(c2ncnc3cc(-c4ccc5oc(N)nc5c4)c(Cl)cc23)CC1` [Compound I-164, 1-(4-(7-(2-aminobenzo[d]oxazol-5-yl)-6-chloroquinazolin-4-yl)piperazin-1-yl)prop-2-en-1-one] was tested. Which Binding % did it give?
Answer: + (+indicates binding activity from 5% to 25%)

Question: With `C=CC(=O)N1CCN(c2ncnc3ccc(-c4ccc(Cl)cc4)cc23)CC1` [Compound I-71, 1-(4-(6-(4-chlorophenyl)quinazolin-4-yl)piperazin-1-yl)prop-2-en-1-one] as the compound, how does the Binding % read?
Answer: + (+indicates binding activity from 5% to 25%)

Question: Which Binding % does the source give for `C=CC(=O)N1CCN(c2ncnc3cc(-c4ccccc4CO)c(Cl)cc23)CC1` [Compound I-108, 1-(4-(6-chloro-7-(2-(hydroxymethyl)phenyl)quinazolin-4-yl)piperazin-1-yl)prop-2-en-1-one] here?
Answer: ++ (++indicates binding activity greater than 25% and up to 50%)

Question: `C=CC(=O)N1CCN(c2ncnc3cc(-c4ccccc4C(F)(F)F)c(Cl)cc23)CC1C(N)=O` (centres unmarked) [Compound I-121, 1-acryloyl-4-(6-chloro-7-(2-(trifluoromethyl)phenyl)quinazolin-4-yl)piperazine-2-carboxamide] was tested. Which Binding % did it give?
Answer: ++++ (++++indicates binding activity greater than 75%)

Question: `C=CC(=O)N1CCN(c2ncnc3cc(Cl)c(C#N)cc23)CC1C#N` (centres unmarked) [Compound I-53, 4-(4-acryloyl-3-cyanopiperazin-1-yl)-7-chloroquinazoline-6-carbonitrile] was tested. Which Binding % did it give?
Answer: ++++ (++++indicates binding activity greater than 75%)

Same assay, conditions: compounds 247-342, measured at 30 min

Question: Which Binding % does the source give for `C=CC(=O)N1CCN(c2cnnc3cc(-c4c(O)ccc5ccccc45)c(Cl)cc23)CC1` [Compound I-258, 1-(4-(6-chloro-7-(2-hydroxynaphthalen-1-yl)cinnolin-4-yl)piperazin-1-yl)prop-2-en-1-one] here?
Answer: ++ (++indicates binding activity greater than 25% and up to 50%)

Question: With `C=CC(=O)N1CCN(c2c(C#N)cnc3cc(-c4c(C)ccc5[nH]ncc45)c(Cl)cc23)CC1` [Compound I-270, 4-(4-acryloylpiperazin-1-yl)-6-chloro-7-(5-methyl-1H-indazol-4-yl)quinoline-3-carbonitrile] as the compound, how does the Binding % read?
Answer: +++ (+++indicates binding activity greater than 50% and up to 75%)

Question: For `C=CC(=O)N1CCN(c2ncnc3c(F)c(-c4c(O)cccc4F)c(F)cc23)CC1` [Compound 299, 1-(4-(6,8-difluoro-7-(2-fluoro-6-hydroxyphenyl)quinazolin-4-yl)piperazin-1-yl)prop-2-en-1-one], which Binding % is on record?
Answer: + (+indicates binding activity from 5% to 25%)

Same assay, conditions: compounds 247-342, measured at 30 min; listed as 256

Question: `C=CC(=O)N1CCN(c2ncnc3c(F)c(-c4cc(O)cc5ccccc45)c(Cl)cc23)CC1` [Compound I-256, 1-(4-(6-chloro-8-fluoro-7-(3-hydroxynaphthalen-1-yl)quinazolin-4-yl)piperazin-1-yl)prop-2-en-1-one] was tested. Which Binding % did it give?
Answer: +++ (+++indicates binding activity greater than 50% and up to 75%)

Same assay, conditions: determined at 2 hrs

Question: For `C=CC(=O)N1CC(N2CCN(C(=O)CNc3cc(C4CC4)c(Cl)cc3O)CC2CO)C1` (centres unmarked) [II-54, 1-(3-(4-(2-(4-Chloro-5-cyclopropyl-2-hydroxyphenylamino)acetyl)-2-(hydroxymethyl)piperazin-1-yl)azetidin-1-yl)prop-2-en-1-one], which Binding % is on record?
Answer: ++ (++indicates binding activity greater than 20%)

Question: Which Binding % does the source give for `C=CC(=O)N1CC(N2CCN(C(=O)CSc3cc(C4CC4)c(Cl)cc3OC)CC2)C1` [II-65, 1-(3-(4-(2-(4-Chloro-5-cyclopropyl-2-methoxyphenylthio)acetyl)piperazin-1-yl)azetidin-1-yl)prop-2-en-1-one] here?
Answer: + (+indicates binding activity from 5% to 20%)

Same assay, conditions: determined at 24 hrs

Question: How did the Binding % turn out when `C=CC(=O)N1CC(N2CCN(C(=O)CNc3cc(O)c(Cl)c(Cl)c3)CC2)C1` [II-27, 1-(3-(4-(2-(3,4-dichloro-5-hydroxyphenyl-amino)acetyl)piperazin-1-yl)azetidin-1-yl)prop-2-en-1-one] was run?
Answer: ++ (++indicates binding activity greater than 15% and up to 25%)

Question: `C=CC(=O)N1CC(N2CCN(C(=O)CNc3cc(Cl)c(Cl)c(C(N)=O)c3)CC2)C1` [II-44, 5-(2-(4-(1-acryloylazetidin-3-yl)piperazin-1-yl)-2-oxoethylamino)-2,3-dichlorobenzamide] was tested. Which Binding % did it give?
Answer: + (+indicates binding activity from 5% to 15%)

Question: How did the Binding % turn out when `C=CC(=O)N1CC(N2CCN(C(=O)CNc3cc(Cl)ccc3O)CC2)C1` [II-19, 1-(3-(4-(2-(5-chloro-2-hydroxyphenyl-amino)acetyl)-piperazin-1-yl)azetidin-1-yl)prop-2-en-1-one] was run?
Answer: +++ (+++indicates binding activity greater than 25% and up to 50%)
